# Reference: patent publication US5762910A, “Liposoluble compounds useful as magnetic resonance imaging agents” (ImaRx Pharmaceutical Corp., priority 1996, dated 1998)
# Experiments:
# [1] = In vitro relaxivity of liposomal contrast agents at 0.5 Tesla (Table I); format: physicochemical; settings: 0.5 Tesla (21.3 MHz); liposomes EPC/cholesterol 8:2, 33 mole percent compound
# Method: Liposomal contrast agents of the invention, prepared in accordance with Example 8, were serially diluted from a stock solution of known concentration. Diluted concentrations for testing were held constant at 0.5 mM, 0.25 mM, 0.125 mM, 0.100 mM, 0.05 mM, and 0.025 mM, respectively. Samples were scanned on a Toshiba MRT 50A 0.5 Tesla (21.3 MHz) clincal magnet equipped with a QD head coil (Toshiba MRI scanner, Nasu, Japan). Signal intensities for resulting scans were then statistically analyzed using a computer curve fitting program (Fit All, MTR Software, version 1.1). Resulting relaxivities were regressed against the concentration to determine R1 (1/T1 mmol sec^-1) and R2 ([…]). The results were compared with similar scans for other compounds not within the scope of the present invention. Specifically, as a comparison for the contrast agents of the invention, 0.5 Tesla scans were made of Gd-DTPA (no liposome), Mn-EDTA-MEA (no liposome), Mn-EDTA-MEA (incorporated into a liposome of 0.1 micron), and phosphate buffered saline (PBS).
# In all liposome examples in Table I, the lipid concentration is 200 mM, and all liposomes are composed of 80 mole percent egg phosphatidyl choline (EPC) and 20 mole percent cholesterol. […]
# [2] = In vitro relaxivity of Mn-EDTA-DDP and Mn-EDTA-DDP albumin suspensions at 0.5 Tesla (Table III); format: physicochemical; settings: 0.5 Tesla (21.3MHz), in mM^-1 s^-1
# Method: Mn-EDTA-DDP and Mn-EDTA-DDP albumin suspensions (contrast agents within the scope of the invention) were prepared in accordance with Example 11, except that water instead of saline was used. The samples scanned by NMR using a 0.5 Tesla (21.3MHz) Toshiba MRI scanner (Nasu, Japan) to determine relaxivity. The results were compared with similar scans for other compounds not within the scope of the invention. Specifically, scans were made of contrast agent of the invention, Mn-EDTA-DDP, Mn-EDTA-DDP albumin suspensions (both heated to 55° C., and unheated), and compared with scans of PBS, Gd-DTPA, MnCl2, and MnCl2 albumin suspensions. MnCl2, and the MnCl2 liposomes were prepared in accordance with Example 15.
# [3] = background; compared with gadolinium alone; cited from earlier work
# [4] = test system: rats bearing hepatic tumors (C5 clonal derivative epithelioid neoplasms); assay: In vivo efficacy, MR imaging at 1.5 Tesla of rats bearing hepatic tumors (Tables IV A-D); parameters: species or system rat; settings: i.v.; for Tumor Contrast To Noise: 30 minute delay
# Method: Mn-EDTA-ODP and Mn-EDTA-DDP liposomes of both 30 nm and 100 nm (contrast agents within the scope of the invention) were prepared in accordance with Example 8, injected intraveneously via a tail vein injection into rats bearing hepatic tumors (C5 clonal derivative epithelioid neoplasms), and the rats imaged using a 1.5 Tesla GE Signa Clinical Magnet equipped with a linear knee coil. Animals were anesthesized with a 10:1 mixture v/v of ketamine (100 mg/ml) and acepoumozine (10 mg/ml) prior to imaging. Imaging parameters were: TR=250; TE=12; Matrix=256×192; NEX=8; FOV 16 cm; Slice Thickness=3 mm; Slice Gap=1 mm. Images were taken in the coronal plane, mapped off an axial scout image. For comparison, rats were also injected with MnCl2, and MnCl2 liposomes, prepared in accordance with Example 15.
# In Table IV A, imaging was preformed with one rat at each dose. S/N denotes signal to noise ratio.
# In Table IV B, the "*" denotes a 30 minutes delay in imaging. Also, NA denotes that imaging was not done at the indicated dosage. The liposomes employed were composed of 80 mole percent egg phosphatidylcholine (EPC) and 20 mole percent cholesterol. With the Mn-EDTA-DDP liposomes, there was a 1:3 molar ratio of Mn-EDTA-DDP to lipid in the liposomes (lipid was 8:2 EPC/cholesterol). The data was obtained from one rat imaged at each dose.
# In Table IV C, NT denotes that no tumors were detected, and NA denotes that imaging not done at the indicated dosage.
# In Table IV D, NT denotes that no tumors were detected, and NA denotes that imaging not done at the indicated dosage.
# Outbred ICR mice = assay: In vivo toxicity, LD50 in mice after intravenous tail vein injection (Table V); parameters: species or system mouse; settings: i.v. tail vein
# Method: Outbred ICR mice (Harlan Sprague Dawley, Indianapolis, Ind.) were injected intraveneously via a tail vein injection with various doses of Mn-EDTA-DDP and Mn-EDTA-DDP liposomes, prepared in accordance with Example 8, and the LD50 measured. As a comparison, the mice were also injected with MnCl2 and MnCl2 liposomes.
# In Table V, MnCl2 liposomes denotes manganese chloride salt entrapped in 100 nm diameter liposomes comprised of 8:2 EPC/cholesterol. Also, Mn-EDTA-DDP in liposomes refers to 100 nm liposomes comprised of 1:3Mn-EDTA-DDP to lipid (where the lipid is 8:2 EPC/cholesterol).
compound,measurement,setting,value
O=C([O-])CN(CCN(CC(=O)[O-])CC(=O)[O-])CCN(CC(=O)[O-])CC(=O)[O-].[Gd+3] [Gd-DTPA],"R1 (1/T1), relaxivity",[1],4.68 ± 0.279 per millimole of paramagnetic
same,"R2 (1/T2), relaxivity",[1],5.17 ± 0.148 per millimole of paramagnetic
same,"R1, relaxivity",[2]; 1.0 mM,4.58 ± 0.143
same,"R2, relaxivity",[2]; 1.0 mM,5.41 ± 0.65
same,toxicity (in words),[3],much less toxicity
"[Cl][Mn][Cl] [MnCl2, manganese chloride]","R1, relaxivity",[2]; with and without albumin,8.73 ± 0.928
same,"R2, relaxivity",[2]; with and without albumin,39.45 ± 0.515
same,Tumor Contrast To Noise,[4]; 0.5 μM/kg,12
same,Percent Liver Enhancement,"[4]; 0.5 μM/kg, delayed post (30 minutes delay)",0%
same,Contrast to Noise,"[4]; 0.5 μM/kg, post",19
same,Percent Liver Enhancement,"[4]; 0.5 μM/kg, post",0%
same,Contrast to Noise,"[4]; 0.5 μM/kg, pre",28
same,Tumor Contrast To Noise,[4]; 1.0 μM/kg,16
same,Percent Liver Enhancement,"[4]; 1.0 μM/kg, delayed post (30 minutes delay)",0%
same,Contrast to Noise,"[4]; 1.0 μM/kg, post",23
same,Percent Liver Enhancement,"[4]; 1.0 μM/kg, post",0%
same,Contrast to Noise,"[4]; 1.0 μM/kg, pre",37.5
same,Tumor Contrast To Noise,[4]; 2.5 μM/kg,35.9
same,Percent Liver Enhancement,"[4]; 2.5 μM/kg, delayed post (30 minutes delay)",29.4%
same,Contrast to Noise,"[4]; 2.5 μM/kg, post",17.9
same,Percent Liver Enhancement,"[4]; 2.5 μM/kg, post",25%
same,Contrast to Noise,"[4]; 2.5 μM/kg, pre",13.1
same,Tumor Contrast To Noise,[4]; 5.0 μM/kg,31.3
same,Percent Liver Enhancement,"[4]; 5.0 μM/kg, delayed post (30 minutes delay)",21%
same,Contrast to Noise,"[4]; 5.0 μM/kg, post",28.3
same,Percent Liver Enhancement,"[4]; 5.0 μM/kg, post",43%
same,Contrast to Noise,"[4]; 5.0 μM/kg, pre",21.3
same,Tumor Contrast To Noise,[4]; 10.0 μM/kg,29.6
same,Percent Liver Enhancement,"[4]; 10 μM/kg, delayed post (30 minutes delay)",61%
same,Percent Liver Enhancement,"[4]; 10 μM/kg, post",81%
same,Contrast to Noise,"[4]; 10.0 μM/kg, post",29.2
same,Contrast to Noise,"[4]; 10.0 μM/kg, pre",9.3
same,Interpolated LD50s,Outbred ICR mice,250 µmol/kg
"Manganese N,N'-Bis-(Carboxy-Decylamidomethyl-N-2,3-Dihydroxypropyl)-Ethylenediamine- N,N'-Diacetate [Mn-EDTA-DDP]","R1, relaxivity",[2]; with and without albumin,9.83 ± 0.332
same,"R2, relaxivity",[2]; with and without albumin,15.20 ± 0.393
same,Interpolated LD50s,Outbred ICR mice,240 µmol/kg
